Patent publication US20240002388A1, “PYRIMIDINONE COMPOUNDS AND USES THEREOF” (HUTCHISON MEDIPHARMA LIMITED, priority 2020, published 2024)

System: IL-1β production in human whole blood
Experiment: TNF-α, Z-VAD-FMK and SM-164 induced IL-1β production in human whole blood
Type: cell-based
Settings: Z-VAD-FMK and SM-164 stimulation, 6 hours, IL-1β ELISA
From the text: • Human blood samples were collected by venipuncture from healthy volunteers, with signed consent from each volunteer before blood collection; • RPMI 1640 medium: L-Glutamine, 1.5 g/L NaHCO3, 2.383 g/L HEPES solution, 0.11 g/L sodium pyruvate and 4.5 g/L Glucose; Gibco, catalog: A10491-01; • Dimethyl sulfoxide (DMSO): Sigma, catalog: D2650; • Recombinant Human TNF-alpha Protein (hTNF-α): R&D system, catalog: 210-TA-100; • Pan-Caspase inhibitor (Z-VAD-FMK): Selleckchem, catalog: S7023; • Smac Mimetic-164 (SM-164): APEXBIO, catalog: A8815; • Human IL-1 beta/IL-1F2 Quantikine ELISA Kit: R&D systems, catalog: SLB50; • Envision Multimode Microplate Reader: PerkinElmer; • 96-well clear flat bottom TC-treated culture microplate: Falcon, catalog: 353072; • 96-well Microplate (U bottom): Corning, catalog: 3799. 2. Assay Protocol Human whole blood was anti-coagulated with heparin and used in human whole blood assay immediately. Fresh heparinized human whole blood was diluted with an equal volume of RPMI 1640 medium, aliquoted the diluted blood into 96-well plate, 90 μL each well.
Compound preparation: dilute the compound stock using DMSO and perform 3-fold serial dilution to 8-points. Then transfer the diluted compounds to RPMI 1640 medium and mix.
Compound treatment and stimulation: transfer 5 μL of the diluted compound to appropriate wells of the plate. The final concentration of the compound was 1.0, 0.333, 0.111, 0.037, 0.012, 0.004, 0.0014 and 0.0005 μM, and each well contained 0.3% DMSO. For positive and negative control wells, add 5 μL of RPMI 1640 medium with 3% DMSO. And incubate the plate at 5% CO2, 37° C. for 1 hour.
Then 5 μL of the mixture of stimuli (TNF-α, Z-VAD-FMK and SM-164) was added with the final concentration of […] except negative control wells. The negative control wells were added same volume of RPMI 1640 medium.
After incubation 6 hours in a 37° C./5% CO2 incubator, each well was added with 100 μL of PBS, and centrifuged at 4000 rmp for 10 minutes. The 110 μL of supernatant per well was collected, and stored at −80° C. for ELISA.
Prepared 100 μL of IL-1β standards (in duplicate) in designated wells. ELISA was operated according to manufacturer's instruction. In the end, measured the ELISA plate absorbance at 450 nm/570 nm using Envision.
Inhibition rates of compounds on TNF-α, Z-VAD-FMK and SM-164 induced IL-1β Production in human whole blood were calculated as follows: • IL-1β level was calculated with IL-1β standard curve (standard curve fitting equation is four parameters logistic model)
[formula] • IL-1β levelstimulated: the concentration of IL-1β in the positive control wells which added TNF-α, Z-VAD-FMK, SM-164 and no compound; • IL-1β levelnon-stimulated: the concentration of IL-1β in the negative control wells without the treatment of TNF-α, Z-VAD-FMK, SM-164 and compound; • IL-1β levelcompound: the concentration of IL-1β in the wells with the treatment of TNF-α, Z-VAD-FMK, SM-164 and compound. • The IC50 value of compound is determined with XLFit 5 software (ID Business Solutions Limited).

Compound	IC50
CC(C)n1ncc2cnc(C(=O)NC3(c4ccc(-c5cncn(CC6CC6)c5=O)cc4F)CC3)nc21 [Compound 74]	13 nM
C[C@@H](n1cncc(-c2ccc(C3(NC(=O)c4ncc5cnn(CC6CC6)c5n4)CC3)c(F)c2)c1=O)C(F)(F)F [Compound 76]	9 nM
CC(C)n1cncc(-c2ccc(C3(NC(=O)c4ncc5cnn([C@H](C)C6CC6)c5n4)CC3)cc2)c1=O [Compound 89, (R)-1-(1-cyclopropylethyl)-N-(1-(4-(1-i-propyl-6-oxo-1,6-dihydropyrimidin-5-yl)phenyl)cyclopropyl)-1H-pyrazolo[3,4-d]pyrimidine-6-carboxamide]	18 nM
CC(C)n1cncc(-c2ccc(C3(NC(=O)c4ncc5cnn(C(C)C6CC6)c5n4)CC3)cc2)c1=O (racemic) [Compound 59, 1-(1-cyclopropylethyl)-N-(1-(4-(1-i-propyl-6-oxo-1,6-dihydropyrimidin-5-yl)phenyl)cyclopropyl)-1H-pyrazolo[3,4-d]pyrimidine-6-carboxamide]	4 nM
CC(C)n1ncc2cnc(C(=O)NC3(c4ccc(-c5cncn([C@H](C)C(F)(F)F)c5=O)cc4F)CC3)nc21 (stereo in doubt) [Compound 46]	6 nM
CC(C)n1cncc(-c2ccc(C3(NC(=O)c4ncc5cnn(CC6CC6)c5n4)CC3)cc2F)c1=O [Compound 73]	21 nM
CC(C)n1cncc(-c2ccc(C3(NC(=O)c4ncc5cnn([C@@H](C)C6CC6)c5n4)CC3)cc2)c1=O [Compound 90, (S)-1-(1-cyclopropylethyl)-N-(1-(4-(1-i-propyl-6-oxo-1,6-dihydropyrimidin-5-yl)phenyl)cyclopropyl)-1H-pyrazolo[3,4-d]pyrimidine-6-carboxamide]	7 nM
CC(C)n1cncc(-c2ccc(C3(NC(=O)c4ncc5cnn(C6COC6)c5n4)CC3)cc2)c1=O [Compound 60]	10 nM
CC(C)n1ncc2cnc(C(=O)NC3(c4ccc(-c5cncn([C@H](C)C6CC6)c5=O)cc4)CC3)nc21 [Compound 84, (R)—N-(1-(4-(1-(1-cyclopropylethyl)-6-oxo-1,6-dihydropyrimidin-5-yl)phenyl)cyclopropyl)-1-i-propyl-1H-pyrazolo[3,4-d]pyrimidine-6-carboxamide]	5 nM
C[C@H](n1cncc(-c2ccc(C3(NC(=O)c4ncc5cnn(CC6CC6)c5n4)CC3)cc2)c1=O)C(F)(F)F [Compound 68]	43 nM
C[C@@H](n1cncc(-c2ccc(C3(NC(=O)c4ncc5cnn(CC6CC6)c5n4)CC3)cc2)c1=O)C(F)(F)F [Compound 70]	8 nM
CC(C)n1ncc2cnc(C(=O)NC3(c4ccc(-c5cncn(CC6CC6)c5=O)c(F)c4)CC3)nc21 [Compound 75]	11 nM
CC(C)n1ncc2cnc(C(=O)NC3(c4ccc(-c5cncn([C@@H](C)C6CC6)c5=O)cc4)CC3)nc21 [Compound 85, (S)—N-(1-(4-(1-(1-cyclopropylethyl)-6-oxo-1,6-dihydropyrimidin-5-yl)phenyl)cyclopropyl)-1-i-propyl-1H-pyrazolo[3,4-d]pyrimidine-6-carboxamide]	5 nM
CC(C)n1cncc(-c2ccc(C3(NC(=O)c4ncc5cnn(CC6CC6)c5n4)CC3)c(F)c2)c1=O [Compound 72]	39 nM
CC(C)n1ncc2cnc(C(=O)NC3(c4ccc(-c5cncn(C6COC6)c5=O)cc4)CC3)nc21 [Compound 41]	18 nM
CC(C)n1ncc2cnc(C(=O)NC3(c4ccc(-c5cncn([C@@H](C)C(F)(F)F)c5=O)cc4F)CC3)nc21 (stereo in doubt) [Compound 47]	9 nM
CC(C)n1ncc2cnc(C(=O)NC3(c4ccc(-c5cncn(CC6(C)CC6)c5=O)cc4)CC3)nc21 [Compound 86]	13 nM
CC(C)n1ncc2cnc(C(=O)NC3(c4ccc(-c5cncn(CC6CC6)c5=O)cc4)CC3)nc21 [Compound 36]	4 nM
O=C(NC1(c2ccc(-c3cncn(CC4CC4)c3=O)cc2)CC1)c1ncc2cnn(CC3CC3)c2n1 [Compound 64]	12 nM
C[C@H](n1cncc(-c2ccc(C3(NC(=O)c4ncc5cnn(CC6CC6)c5n4)CC3)c(F)c2)c1=O)C(F)(F)F [Compound 71]	38 nM
CC(C)n1cncc(-c2ccc(C3(NC(=O)c4ncc5cnn(C(C)C)c5n4)CC3)cc2)c1=O [Compound 29, 1-isopropyl-N-(1-(4-(1-isopropyl-6-oxo-1,6-dihydropyrimidin-5-yl)phenyl)cyclopropyl)-1H-pyrazolo[3,4-d]pyrimidine-6-carboxamide]	4 nM
CC(C)n1cncc(-c2ccc(C3(NC(=O)c4ncc5cnn(CC6CC6)c5n4)CC3)cc2)c1=O [Compound 61]	11 nM
